The values below come from paper PMC10673308, “Unusual Oligomeric Laccase-like Oxidases from Ascomycete Curvularia geniculata VKM F-3561 Polymerizing Phenylpropanoids and Phenolic Compounds under Neutral Environmental Conditions” (Microorganisms, 2023).

Assay [1] relates to T1, oxidase I (laccase-like oxidase I of C. geniculata VKM F-3561).
T1 construct: native, purified from culture liquid; glycosylated oligomer about 1035 kDa, subunit about 63 kDa deglycosylated
As to the kind of experiment: spectrophotometric oxidation assay. Type of assay: biochemical, Curvularia geniculata. The following applies: apparent, error < 10%. The source says:
spectrophotometric oxidation assay on oxidase I (laccase-like oxidase I of C. geniculata VKM F-3561)

The test system of assay [2] is T2, oxidase II (laccase-like oxidase II of C. geniculata VKM F-3561).
T2 construct: native, purified from culture liquid; glycosylated oligomer about 870 kDa, subunit about 63 kDa deglycosylated
Briefly: spectrophotometric oxidation assay. Type of assay: biochemical, Curvularia geniculata. To be noted: apparent, error < 10%. From the text:
spectrophotometric oxidation assay on oxidase II (laccase-like oxidase II of C. geniculata VKM F-3561)

The structures appear in SMILES notation.

Regarding `COc1cccc(OC)c1O` [2,6-dimethoxyphenol], the figures for the Km in assay [1] (50 mM Tris-HCl buffer pH 7.2) and in assay [2] (50 mM Tris-HCl buffer pH 7.2) were 26 µM and 108 µM, respectively.

Regarding `CCn1c(=NN=c2sc3cc(S(=O)(=O)O)ccc3n2CC)sc2cc(S(=O)(=O)O)ccc21` [ABTS, 2,2′-azino-bis(3-ethylbenzothiazoline 6-sulfonic acid)], the Km (usually the concentration of substrate that gives half-maximal velocity) in assay [1] (20 mM Na-acetate buffer pH 5.0) was determined as 280 µM; in assay [2] (20 mM Na-acetate buffer pH 5.0), 152 µM.

As for `COc1cc(/C=C/CO)ccc1O` [coniferyl alcohol], the Km in assay [1] (50 mM Tris-HCl buffer pH 7.2) is 130 µM; in assay [2] (50 mM Tris-HCl buffer pH 7.2), 125 µM.

Regarding `COc1cc(/C=C/C(=O)O)ccc1O` [ferulic acid], the Km amounted to 37.6 µM in assay [1] (50 mM Tris-HCl buffer pH 7.2) and 51 µM in assay [2] (50 mM Tris-HCl buffer pH 7.2).

As to `COc1cc(C=NN=Cc2cc(OC)c(O)c(OC)c2)cc(OC)c1O` [syringaldazine, 4-hydroxy-3,5-dimethoxybenzaldehyde azine], the Km came to 2.3 µM in assay [1] (50 mM Tris-HCl buffer pH 7.2) and 46 µM in assay [2] (50 mM Tris-HCl buffer pH 7.2).
